The text below walks through data of patent US5500430A, “Amidic derivatives of glutamic, aspartic and 2-amino adipic acids, a process for preparing same, and anti-gastrin composition containing the derivatives” (Rotta Research Laboratorium S.p.A., priority 1990, dated 1996).

Experiment [1] concerns gastric acid secretion induced by pentagastrin. Kind of experiment: Antisecretive activity in anaesthetised rats (pentagastrin-stimulated gastric acid secretion). Particulars: for ED50: Rattus norvegicus, iv, anaesthetised male rats, I.V. bolus, IN with bound, read-out: Antagonistic activity (ID50) towards gastric acid secretion induced by pentagastrin; for ED50 / Antigastrin activity (in words): pentagastrin 30 mcg/Kg/h; for Antigastrin activity (in words): anaesthetised rats. In kind it is in vivo. How it is done: Antisecretive activity in anaesthetised rats
Antisecretive activity in rats was determined with the use of male animals each weighing about 200 g, anaesthetised with urethane. Gastric secretion was stimulated with pentagastrin. The method of K. S. Lai (Gut 5, (1964), 327-341) was used, slightly modified.
After tracheotomy, cannulae were inserted in the oesophagus and the duodenum. A tepid solution. (37° C.) of 0.25 mM NaOH was perfused and passed through the stomach by means of a peristaltic pump at a constant flow rate of 1 ml/minute. After stabilisation for 20 minutes, the stimulating agent, dissolved in a physiological solution, was perfused for 120 minutes at a dose of 30 mcg/Kg/h in a volume of 0.95 ml/hour. After perfusion for 60 minutes (the basal stimulation), the product under test was administered as an intravenous bolus (I.V.) and the perfusion of the stimulant continued for a further 60 minutes. Acid secretion was recorded continuously as a function of time.
The activity of the product was evaluated as the percentage reduction in the secreted acidity after the administration of the product compared with the base acidity measured during the first 60 minutes of collection during which only the pentagastrin was present.
Different doses of the antagonist compounds tested were administered so that an ID50, that is, the dose (in mg/Kg I.V.) capable of inhibiting the effect of pentagastrin by 50%, could be calculated.
The results thus obtained are illustrated in the following table (Table 1) in which the activities of the compounds are expressed as the ID50s under the stimulus of 30 mcg/Kg/h of pentagastrin.

The test system is the same in experiment [2]. Kind of experiment: Antisecretive activity in conscious dogs carrying gastric fistulae. It is filed as in vivo, dogs (beagles). Particulars: for ED50: Canis lupus familiaris, iv, read-out: ID50 (the source's name). How it is done:
Antisecretive activity in conscious dogs
Male beagles weighing about 10 Kg were used and carried gastric fistulae at the level of the greater curvature, connected near the antral region, steel cannulae 5 cm long and 2 cm wide being inserted for collecting the gastric juices externally. After a period of about one month to recover from the operation, and after suitable conditioning, the animals were treated with pentagastrin at a dose of 3 mcg/Kg/h. The Stimulant, dissolved in a physiological solution, was perfused into the femoral vein for 180 minutes at a rate of 1.9 ml/h. After perfusion for 60 minutes (the basal stimulation) the product under test, dissolved in a physiological solution (1 ml/Kg), was administered in a bolus into the contra-lateral vein and, at the same time, the perfusion of the stimulant continued for a further 120 minutes. The acid secretion was recorded continuously as a function of time.
The activity of the product was evaluated as the percentage reduction in the secreted acidity after the administration of the product compared with the base acidity measured during the first 60 minutes of collection during which only the pentagastrin was present, for each of the periods 0-60 and 60-120 minutes after the product had been administered in a bolus.
Different doses of the compounds (C-1 and C-5) tested were administered so that an ID50, that is the dose (in mg/Kg I.V.) capable of inhibiting the effect of the pentagastrin by 50% could be calculated.
The results obtained are given in the following table (Tab. 2) in which the % variations from the base (the mean ± standard deviations calculated on the values obtained from 4 animals) are given for the various doses administered under the stimulus of 3 mcg/Kg/h of pentagastrin, as well as the activities of the compounds, calculated as their ID50s, and the correlation coefficients of the regression lines calculated on the basis of the experimental data.

The target of experiment [3] is T1, gastrin receptor sites on the cerebral cortex membranes of mice (Mus musculus, UniProt P56481).
T1 construct: Mouse cortical tissue; from tissue; host or cells: mouse cerebral cortex membranes
T1 sequence (P56481 1-453): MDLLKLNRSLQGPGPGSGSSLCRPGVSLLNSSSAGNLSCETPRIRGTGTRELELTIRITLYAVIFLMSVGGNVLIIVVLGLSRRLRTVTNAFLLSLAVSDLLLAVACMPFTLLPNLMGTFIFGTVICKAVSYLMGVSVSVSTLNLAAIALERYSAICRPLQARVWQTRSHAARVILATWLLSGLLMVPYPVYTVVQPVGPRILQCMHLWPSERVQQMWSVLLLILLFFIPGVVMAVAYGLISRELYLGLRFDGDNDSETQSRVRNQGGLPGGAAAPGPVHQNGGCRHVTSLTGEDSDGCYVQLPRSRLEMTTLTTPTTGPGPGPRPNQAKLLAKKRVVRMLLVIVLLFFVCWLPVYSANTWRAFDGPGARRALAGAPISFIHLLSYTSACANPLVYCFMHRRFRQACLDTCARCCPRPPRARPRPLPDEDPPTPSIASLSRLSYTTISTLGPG
Kind of experiment: Inhibition of the binding of pentagastrin to mouse cortical membranes. An excerpt:
Tests on binding to cerebral cortex membranes of mice
The capacities of some of the compounds of the invention to inhibit the binding of pentagastrin to the gastrin receptor sites on the cerebral cortex membranes of mice was to be evaluated. Pentagastrin tritiate[beta-alanyl-3-3H(N)] was used as the ligand.
Mouse cortical tissue Was homogenised cold in 20 volumes of tris buffer (pH 7.7). After washing and centrifuging, the final pellet was resuspended in 20 volumes of binding buffer containing, inter alia, TRIS, BSA and Bacitracin. 0.4 ml of the membrane thus obtained were then incubated with a radioactive tracer and the compounds under test for 40 minutes at 37° C.
After the supernatant liquid had been removed by centrifuging, the radioactivity associated with the pellet was determined with a liquid scintillator (a beta-counter). The specific binding was the difference between the binding in the absence and in the presence of 10^-5M pentagastrin.

The subject of experiment [4] is guinea-pig gall bladder contracted with CCK-8. Kind of experiment: Anticholecystokinin (anti-CCK) activity on guinea-pig gall bladders stimulated by CCK-8 in vitro. To be noted: CCK-8 concentration 10 ng/ml, Krebs, 32° C. How it is done:
Anticholecystokinin (anti-cc, K) activity
In order to confirm the hypothesis that the molecular conformations of the compounds of the invention are suitable to provide them with antagonistic activity towards CCK as well as towards gastrin, the anticontracturant activities of some of the compounds of the invention were tested on guinea-pig gall bladders stimulated by CCK-8 in vitro.
A longitudinal strip of guinea-pig gall bladder was placed in a bath for isolated organs in the presence of Krebs at a temperature of 32° C. and oxygenated continuously with an oxygen-CO2 mixture (95-5 V/V).
The isometric contractions were detected by means of a force transducer and recorded.
The gall bladder was contracted with the use of a concentration of 10 ng/ml of CCK-8; the antagonistic activities of the compounds towards the contracturant effect of the CCK was determined with the use of different concentrations, thus determining the IC50 values, that is, the concentration of the compound in mcg/ml which can antagonise the contracturant effect of CCK by 50%.

The subject of the next experiment is fundic mucosa. Briefly: Fundic mucosa hyperplasia induced by pentagastrin in mice. In kind it is in vivo. Particulars: 21 days. An excerpt: (§1) Inhibitory effect on the rate of growth of tumorous colic cells induced by pentagastrin
(§2) Gastrin has a trophic effect on the digestive epithelium.
(§3) Upon the basis of this premise, it was wished to investigate whether the gastrin-specific antagonists of the invention could antagonise the growth of experimentally-induced gastrointestinal tumours.
(§4) Male mice weighing 20-25 g were inoculated subcutaneously in the interscapular region with a suspension of 8×10^4 tumour cells of a mouse colic adenocarcinoma.
(§5) After 21 days, the animals were killed and the fundic mucosa and the tumours were removed, weighed and extracted to determine the DNA.

Experiment [5] deals with mouse colic adenocarcinoma. Kind of experiment: Colic tumorous growth induced by pentagastrin in mice. In kind it is in vivo. To be noted: 21 days.
Description: as §1, §2, §3, §4, §5

The test system of another experiment is fundic and colic mucosae. To be noted: rats; cited from earlier work.
Experiment [6] deals with transplantable mouse colic tumour. Particulars: Winsell et al., Surgical Forum, 33, 384 (1982); cited from earlier work.
The mark [7] stands for this setting: pentagastrin tritiate ligand, 40 minutes at 37° C., read-out: IC50, inhibition of the binding of pentagastrin.
Setting [8] is: pentagastrin alone, 250 mcg/Kg twice a day.

Where two headings read alike, the source gives them in different places.

In the case of `O=C(O)CC[C@@H](NC(=O)c1cccc(Cl)c1)C(=O)N1CCC2(CCCC2)CC1` [Compound C1], the ED50 turned out to be 20 mg/kg in experiment [1]; 19.7 mg/kg in experiment [2] (1 h, conscious dogs, I.V. bolus, period 60-120 min (first hour after administration)); 31.5 mg/kg in experiment [2] (2 h, conscious dogs, I.V. bolus, period 120-180 min (second hour after administration)). The “Antigastrin activity (in words)” value in experiment [1] is recorded as “particularly favourable”. Further, in experiment [1] (rats, vs C2), the “Activity on the peripheral gastrin (gastric secretion) receptor relative to compound C2 (times more active)” value is given as “about 1.5 times”. The “Variation % (Mean ± SD) from base (0-60 min)” value was -18.2 ± 0.3% in experiment [2] (5 mg/Kg I.V., period 60-120 min); -22.8 ± 16.7% in experiment [2] (5 mg/Kg I.V., period 120-180 min); -38.9 ± 7.9% in experiment [2] (10 mg/Kg I.V., period 60-120 min); -14.3 ± 8.5% in experiment [2] (10 mg/Kg I.V., period 120-180 min); -49.5 ± 4.2% in experiment [2] (20 mg/Kg I.V., period 60-120 min); -26.1 ± 6.4% in experiment [2] (20 mg/Kg I.V., period 120-180 min). Moreover, the “Variation % (Mean ± SD) from base (0-60 min)” value in experiment [2] (30 mg/Kg I.V., period 60-120 min) was -61.1 ± 12.5%; in experiment [2] (30 mg/Kg I.V., period 120-180 min) it was -56.7 ± 19.5%; in experiment [2] (40 mg/Kg I.V., period 60-120 min) it was -63.4 ± 11.5%; in experiment [2] (40 mg/Kg I.V., period 120-180 min), -43.4 ± 10.3%; in experiment [2] (60 mg/Kg I.V., period 60-120 min), -74.2 ± 5.6%; in experiment [2] (60 mg/Kg I.V., period 120-180 min), -79.9 ± 1.6%. In addition, in experiment [2] (conscious dogs, I.V. bolus, period 60-120 min (first hour after administration), 60 min), the ID50 entry is “about 20 mg/Kg”. Further, the “Inhibition of gastric acid secretion induced by pentagastrin in dogs (in words)” value in experiment [2] (conscious dogs, first hour after bolus) is “potent inhibitors of gastric acid secretion induced by pentagastrin in dogs”. In experiment [3] (R series vs S enantiomers (C1 vs C32)), the “Activity relative to the corresponding S enantiomer (times more active)” value is “about 50 times”. Also, the IC50 in experiment [3] (setting [7]) was 470 nM. In addition, in experiment [3] (vs C2), the “Central activity relative to C2” value is given as “only one third as active as C2 centrally”. Further, in experiment [4], the “Anti-CCK activity IC50” value turned out to be 20 µg/mL.
As for `O=C(O)CC[C@@H](NC(=O)c1cccc(Cl)c1)C(=O)NCCC12CC3CC(CC(C3)C1)C2` [Compound C30], in experiment [1], the ED50 came out at 25 mg/kg and the “Antigastrin activity (in words)” value is given as “particularly favourable”. Moreover, the IC50 in experiment [3] (setting [7]) was 30 nM. The “Anti-CCK activity IC50” value in experiment [4] was determined as 59 µg/mL.
Take `O=C(O)CCC(NC(=O)c1cccc(Cl)c1)C(=O)N1CCC2(CC1)OCC(CO)O2` (stereo not shown) [Compound D2]: the ED50 in experiment [1] turned out to be 85 mg/kg. In experiment [3], this molecule gave an IC50 above 10000 nM. Also, the “Anti-CCK activity IC50” value in experiment [4] amounted to 108 µg/mL.
Turning to `O=C(O)CC(NC(=O)c1cccc(Cl)c1)C(=O)N1CCC2(CCCC2)CC1` (stereo not shown) [Compound D4], the ED50 in experiment [1] stood at 70 mg/kg. Also, the IC50 in experiment [3] (setting [7]) was found to be 6800 nM. Moreover, the “Anti-CCK activity IC50” value in experiment [4] turned out to be 36 µg/mL.
On to `CSCC[C@H](NC(=O)[C@H](Cc1c[nH]c2ccccc12)NC(=O)CCNC(=O)OC(C)(C)C)C(=O)N[C@@H](CC(=O)O)C(=O)N[C@@H](Cc1ccccc1)C(N)=O` [Pentagastrin, pentagastrin, reference compound], for which the IC50 in experiment [3] stood at 2.5 nM. Further, the “Effect on the fundic mucosa (in words)” value in the experiment with fundic mucosa (mice) is on record as “induces significant hyperplasia in the fundic mucosa”. In the experiment on fundic mucosa (setting [8]), the “Fundic DNA, Mean ± SD” value is given as 0.330 ± 0.05 mg and the “Weight of the mucosa fundica, Mean ± SD” value amounted to 32.0 ± 3.50 mg. Besides, the “Effect on colic tumour weight and DNA content (in words)” value in experiment [5] (mice) is “a significant increase in the weight of the colic tumour and the DNA content”. Moreover, in experiment [5] (setting [8]), the “Tumorous DNA, Mean” value is given as 3.62 ± 0.50 mg and the “Weight of the colic tumor, Mean ± SD” value is recorded as 657.0 ± 97.7 mg. For the same molecule, the “Trophic effect of chronic administration” value with fundic and colic mucosae is “causes hyperplasia of the fundic and colic mucosae”.
On to gastrin, for which, in the experiment on fundic and colic mucosae, the “Trophic effect of chronic administration” value was “causes hyperplasia of the fundic and colic mucosae”. In experiment [6], the “Effect on growth of a transplantable mouse colic tumour” value was “stimulates the growth of a transplantable mouse colic tumour”.
